Results published in EP0057900B1, “Animal feed additive for improving growth” (Dr. Karl Thomae GmbH, priority 1981, dated 1982).
Structures can show the parent of a compound that is named as a salt.

Columns and labels:
[1] = Acute toxicity in mice after i.v. administration; format: in vivo, Mäusen; details: mouse, in vivo, iv, mean weight 22 g, i. v. in physiological saline, dose at which 50% of animals died, observation time 14 days, Litchfield and Wilcoxon
Source text: (§1) Die akute Toxizität der zu untersuchenden Substanzen, welche in physiologischer Kochsalzlösung gelöst wurden, wurde an Mäusen mit einem durchschnittlichen Gewicht von 22 g nach i. v. Gabe (0.1 mt/10 g) bestimmt. Es wurde die LD50, die Dosis bei welcher 50% der Tiere nach einer Beobachtungszeit von 14 Tagen verstarben, nach der Methode von Litchfield und Wilcoxon (J. Pharmacol. exp. Ther. 96, 99-113 (1949)) berechnet.

Mäusen = test: Acute toxicity in mice after i.v. administration; format: in vivo; details: mean weight 22 g, i. v. in physiological saline, dose at which 50% of animals died, observation time 14 days, Litchfield and Wilcoxon
Source text: as §1

[2] = system: Fettsäuregehalt des Blutes; test: Lipolytic effect in rabbits (blood fatty acid content, method of Duncombe); format: in vivo, Kaninchen; details: Oryctolagus cuniculus, iv; male and female rabbits, mean weight 2,3 kg; i. v. in physiological saline; dose causing a 50% reduction of blood fatty acid content; calculated according to Fieler; read-out: ED50 µg/kg i. v.
Source text: Beispielsweise wurde die lipolytische Wirkung der Verbindungen • A = 1-(4-Amino-3-cyan-5-fluor-phenyl)-2-tert.butylamino-äthanol-hydrochlorid, • B = 1-(4-Amino-3-cyan-5-fluor-phenyl)-2-isopropylamino-äthanol-hydrochforid, • C = 1-(4-Amino-3-cyan-5-fluor-phenyl)-2-cyclobutylamino-äthanol-hydrochlorid, • D = 1-(4-Amino-3-chlor-5-cyan-phenyl)-2-isopropylamino-äthanol-hydrochlorid, • E = 1-(4-Amino-3-chlor-5-cyan-phenyl)-2-cyclobutylamino-äthanol-hydrochlorid, • F = 1-(4-Amino-3-chlor-5-cyan-phenyl)-2-cyclopentylamino-äthanol-hydrochlorid und • G = 1-(4-Amino-3-chlor-5-trifluormethylphenyl)-2-cyclobutylamino-äthanor-hydrochlorid
an Kaninchen wie folgt geprüft:
Die zu untersuchenden Substanzen wurden männlichen und weiblichen Kaninchen mit einem durchschnittlichen Gewicht von 2,3 kg, gelöst in physiologischer Kochsalzlösung i. v. injiziert (0,2 mg/kg). Der Fettsäuregehalt des Blutes wurde nach der Methode von Duncombe (Biochem. J. 88, 7-10 (1963)) bestimmt. Es wurde die EDso, die Dosis, die eine 50%ige Senkung des Fettsäuregehaltes bewirkt, nach Fieler (Quart. J. Pharm. Pharmacol. 17, 117―123 (1964)) berechnet.

SMILES	LD50 at 336 h [1]	LD50 mg/kg i. v. (Mäusen)	ED50 [2]
CC(C)NCC(O)c1cc(Cl)c(N)c(C#N)c1 (stereo not shown) [D, 1-(4-Amino-3-chlor-5-cyan-phenyl)-2-isopropylamino-äthanol-hydrochlorid]	81 mg/kg		
CC(C)NCC(O)c1cc(F)c(N)c(C#N)c1 (stereo not shown) [B, 1-(4-Amino-3-cyan-5-fluor-phenyl)-2-isopropylamino-äthanol-hydrochforid]		66,4 mg/kg	
N#Cc1cc(C(O)CNC2CCCC2)cc(Cl)c1N (stereo not shown) [F, 1-(4-Amino-3-chlor-5-cyan-phenyl)-2-cyclopentylamino-äthanol-hydrochlorid]		39,1 mg/kg	0.16 µg/kg
N#Cc1cc(C(O)CNC2CCC2)cc(Cl)c1N (stereo not shown) [Verbindung E, 1-(4-Amino-3-chlor-5-cyan-phenyl)-2-cyclobutylamino-äthanol-hydrochlorid]	43.9 mg/kg		
Nc1c(Cl)cc(C(O)CNC2CCC2)cc1C(F)(F)F (stereo not shown) [G, 1-(4-Amino-3-chlor-5-trifluormethylphenyl)-2-cyclobutylamino-äthanor-hydrochlorid]			0.46 µg/kg
CC(C)(C)NCC(O)c1cc(F)c(N)c(C#N)c1 (stereo not shown) [A, 1-(4-Amino-3-cyan-5-fluor-phenyl)-2-tert.butylamino-äthanol-hydrochlorid]	73.6 mg/kg		
